Among the data in patent US20240158393A1, “PYRIDONE COMPOUNDS AND METHODS OF USE” (Exelixis, Inc., priority 2021, published 2024) are IC50 values, retold here.

Where only a bound is given, the exact number is not on record here.

The test concerns the target T1, Human Axl (Homo sapiens, UniProt P30530).
T1 construct: Human AXL (residues 464-885)
T1 sequence (P30530 1-894 Q764R): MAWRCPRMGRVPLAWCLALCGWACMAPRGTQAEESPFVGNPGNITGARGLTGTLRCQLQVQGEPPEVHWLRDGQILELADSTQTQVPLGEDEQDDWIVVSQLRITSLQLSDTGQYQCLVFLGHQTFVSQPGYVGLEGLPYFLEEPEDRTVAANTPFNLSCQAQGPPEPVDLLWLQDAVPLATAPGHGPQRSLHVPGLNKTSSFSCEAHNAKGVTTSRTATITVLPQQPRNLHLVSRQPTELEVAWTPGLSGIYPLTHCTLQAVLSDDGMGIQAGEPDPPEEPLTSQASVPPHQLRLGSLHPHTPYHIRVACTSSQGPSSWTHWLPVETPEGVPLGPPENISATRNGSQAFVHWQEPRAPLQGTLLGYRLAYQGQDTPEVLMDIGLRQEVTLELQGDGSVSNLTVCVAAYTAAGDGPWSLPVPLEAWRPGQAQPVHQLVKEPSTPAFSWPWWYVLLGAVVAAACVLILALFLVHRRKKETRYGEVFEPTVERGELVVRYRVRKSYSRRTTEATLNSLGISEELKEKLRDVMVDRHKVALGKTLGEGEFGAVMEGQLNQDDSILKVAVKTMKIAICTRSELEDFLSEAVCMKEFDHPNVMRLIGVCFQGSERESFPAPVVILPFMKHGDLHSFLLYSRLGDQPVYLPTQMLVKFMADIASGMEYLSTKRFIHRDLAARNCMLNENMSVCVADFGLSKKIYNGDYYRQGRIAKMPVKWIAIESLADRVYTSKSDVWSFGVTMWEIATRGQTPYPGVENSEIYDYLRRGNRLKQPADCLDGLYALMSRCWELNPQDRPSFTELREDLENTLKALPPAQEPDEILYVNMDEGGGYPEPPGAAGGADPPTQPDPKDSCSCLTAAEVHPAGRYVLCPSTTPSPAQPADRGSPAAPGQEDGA
The test is described as follows: Human AXL kinase assay (33P radiometric / HTRF KinEase). The note with it: protocols of Examples A-1 and/or A-2. It is filed as biochemical. How it is done:
Kinase activity and compound inhibition were investigated using the ^33P-Phosphoryl transfer radiometric kinase assay, performed using the KinaseProfiler™ service of Eurofins Pharma Discovery Services UK Limited. Dose-response experiments were performed using nine compound concentrations in a 96-well microtiter plate. For each assay, all compounds were prepared to a 50× final assay concentration (50 μM) in 100% DMSO, then diluted in a half-log series, with the final top concentration at 1 μM. This working stock of the compound was added to the assay well as the first component in the reaction, followed by the remaining components as detailed in the following assay protocols below. The positive control wells (100% kinase activity) contain all components of the reaction including 2% DMSO (control for solvent effects), except the compound of interest. Blank wells contain all components of the reaction, with the reference inhibitor, staurosporine. This reference compound was used to abolish kinase activity and generated the 0% kinase activity base-line. IC50 values were calculated by nonlinear regression analysis using the sigmoidal dose-response (variable slope) curve fit on XLFit version 5.3 (ID Business Solutions).
Kinase activity and compound inhibition were also investigated using the HTRF® KinEase assay (Cisbio Cat #62TKOPEB) per manufacturer's instructions. In short, compounds were delivered in 300 nL volumes at 10 different concentrations in DMSO (3% final) to empty 384-well assay plates (Corning cat #3824). A mixture of enzyme, 1 μM biotinylated peptide substrate, and buffer in 10 μL volume was added. The assay was started upon the addition of ATP (at Km). The 10 μL reaction was incubated at room temperature. The reaction was stopped upon the addition of detection buffer containing streptavidin-XL665 (5 μL) and TK antibody-Eu3+(5 μL). After a 60 min incubation at room temperature, the fluorescence at 665 nm and 620 nm was read on an Envision microplate reader (Perkin Elmer).
Kinase activity normalized to DMSO (100% activity) and reference compound at 1 μM and (0% activity) was calculated using the fluorescence ratio […]. IC50 values were calculated by nonlinear regression analysis using a 4-parameter logistic curve fit in ActivityBase XE (IDBS).
Example A-1: Human Axl (residues H473-A894 with Q764R, 161 nM) was incubated with 8 mM MOPS pH 7.0, 0.2 mM EDTA, 250 μM KKSRGDYMTMQIG (SEQ ID NO:1), 10 mM magnesium acetate and 10 μM [γ-^33P-ATP]. The reaction was initiated by the addition of the Mg/ATP mix. After incubation for 40 minutes at room temperature, the reaction was stopped by the addition of phosphoric acid to a concentration of 0.5%. A reaction aliquot of 10 μL was then spotted onto a P30 filtermat and washed four times for 4 minutes in 0.425% phosphoric acid and once in methanol prior to drying and scintillation counting. Incorporated ^33P was measured using the Wallac Microbeta scintillation counter (Perkin Elmer).
Example A-2: Human AXL (residues 464-885; CarnaBio, 1 ng/well) was also incubated with enzymatic buffer (Cisbio) supplemented with 5 mM MgCl2, 1 mM DTT, and Supplemental Enzymatic Buffer (SEB; Cisbio). The mixture was added to the pre-plated compounds. The reaction was initiated upon addition of ATP at Km (1.0 μM). The reaction was incubated at room temperature for 50 min and stopped upon the addition of SA-XL665 and TK-antibody both diluted in EDTA-containing kinase detection buffer (Cisbio). The kinase activity was calculated as stated above and the IC50 values were reported.
In general, IC50 refers to the concentration that inhibits the measured activity by half. A high value points to lower potency. In turn, `COc1cc2nccc(Oc3ccc(NC(=O)c4c(C)nc(C)c(C#N)c4O)cc3F)c2nc1OC` [Compound 87, 5-Cyano-N-[4-[(6,7-dimethoxy-1,5-naphthyridin-4-yl)oxy]-3-fluorophenyl]-4-hydroxy-2,6-dimethylpyridine-3-carboxamide] returned an IC50 of over 0.3 µM.

Turning to `COc1cc2nccc(Oc3ccc(NC(=O)c4c(C)nc(C)c(C(C)C)c4O)cc3)c2nc1OC` [Compound 9, N-[4-[(6,7-Dimethoxy-1,5-naphthyridin-4-yl)oxy]phenyl]-4-hydroxy-2,6-dimethyl-5-propan-2-ylpyridine-3-carboxamide], the IC50 is at most 0.1 µM.

In turn, `COCCOc1cc2nccc(Oc3ccc(NC(=O)c4cnc(C)c(C5=CCCCC5)c4O)cc3F)c2nc1OC` [Compound 34, 5-(Cyclohexen-1-yl)-N-[3-fluoro-4-[[6-methoxy-7-(2-methoxyethoxy)-1,5-naphthyridin-4-yl]oxy]phenyl]-4-hydroxy-6-methylpyridine-3-carboxamide] registered an IC50 of at most 0.1 µM.

`COc1cc2nccc(Oc3ccc(NC(=O)c4cnc(C)c(C5=CCCCC5)c4O)cc3)c2cc1OC` [Compound 24, 5-(Cyclohexen-1-yl)-N-[4-(6,7-dimethoxyquinolin-4-yl)oxyphenyl]-4-hydroxy-6-methylpyridine-3-carboxamide] gave a half-inhibitory concentration (IC50) of at most 0.1 µM.

Consider `COCCOc1cc2nccc(Oc3ccc(NC(=O)c4c(C)n(C)c(C)c(C5=CCCC5)c4=O)cc3F)c2nc1OC` [Compound 42, 5-(Cyclopenten-1-yl)-N-[3-fluoro-4-[[6-methoxy-7-(2-methoxyethoxy)-1,5-naphthyridin-4-yl]oxy]phenyl]-1,2,6-trimethyl-4-oxopyridine-3-carboxamide], for which the IC50 was at most 0.1 µM.

Turning to `COc1cc2nccc(Oc3ccc(NC(=O)c4c5n(cc(C6=CCOCC6)c4=O)CCOC5)cc3)c2nc1OC` [Compound G1-8, 7-(3,6-Dihydro-2H-pyran-4-yl)-N-[4-[(6,7-dimethoxy-1,5-naphthyridin-4-yl)oxy]phenyl]-8-oxo-3,4-dihydro-1H-pyrido[2,1-c][1,4]oxazine-9-carboxamide], the IC50 was at most 0.1 µM.

With `COc1cc2nccc(Oc3ccc(NC(=O)c4c(C)n(C)c(C)c(N5CCCC5)c4=O)cc3F)c2nc1OC` [Compound 89, N-[4-[(6,7-Dimethoxy-1,5-naphthyridin-4-yl)oxy]-3-fluorophenyl]-1,2,6-trimethyl-4-oxo-5-pyrrolidin-1-ylpyridine-3-carboxamide], the IC50 is at most 0.1 µM.

As to `COc1cc2nccc(Oc3ccc(NC(=O)c4cnc(C)c(/C=C/CC(C)C)c4O)cc3F)c2nc1OC` [Compound 28, N-[4-[(6,7-Dimethoxy-1,5-naphthyridin-4-yl)oxy]-3-fluorophenyl]-4-hydroxy-6-methyl-5-[(E)-4-methylpent-1-enyl]pyridine-3-carboxamide], the IC50 is at most 0.1 µM.

In the case of `COc1cc2nccc(Oc3ccc(NC(=O)c4c(C)n(C)c(C)c(N5CCCCC5)c4=O)cc3F)c2nc1OC` [Compound 90, N-[4-[(6,7-dimethoxy-1,5-naphthyridin-4-yl)oxy]-3-fluorophenyl]-1,2,6-trimethyl-4-oxo-5-piperidin-1-ylpyridine-3-carboxamide], the IC50 is at most 0.1 µM.

Turning to `COc1ccc2nccc(Oc3ccc(NC(=O)c4cnc(C)c(C5=CCCCC5)c4O)cc3F)c2n1` [Compound 1-6, 5-(Cyclohexen-1-yl)-N-[3-fluoro-4-[(6-methoxy-1,5-naphthyridin-4-yl)oxy]phenyl]-4-hydroxy-6-methylpyridine-3-carboxamide], the IC50 was at most 0.1 µM.

`COCCOc1cc2nccc(Oc3cc(F)c(NC(=O)c4c(C)nc(C)c(C(N)=O)c4O)cc3F)c2nc1OC` [Compound 86, 3-N-[2,5-Difluoro-4-[[6-methoxy-7-(2-methoxyethoxy)-1,5-naphthyridin-4-yl]oxy]phenyl]-4-hydroxy-2,6-dimethylpyridine-3,5-dicarboxamide]: the IC50 was over 0.3 µM.
